{
  "source": "patent US10723998B2",
  "about": "“Application of ethyl p-methoxycinnamate and derivatives thereof in maintaining self-renewal and pluripotency of stem cells” (NORTHEAST NORMAL UNIVERSITY, priority 2015, dated 2020)",
  "key": {"mouse teratoma cells P19": {"system": "mouse teratoma cells P19", "test": "Formation of microspheres of suspendedly cultured stem cells (soft agar, MTT dyeing)", "assay_type": "cell-based", "settings": "5 μg/mL, P19 cells on 0.5% soft agar, 7 d, compared with DMSO control; FIG. 4", "method": "5 g agar was weighed and placed in a flask, then 100 mL of ultra-pure water was added, and the mixture was mixed well, sealed, and then autoclaved for 30 min. In a super clean bench, 9 mL of pre-heated (50-60° C.) serum-free DMEM culture medium was pipetted into a 10 mL centrifuge tube, then 1 mL of uncooled 5% agar was added, and rapidly mixed well with a pipette, resulting in 0.5% agar. 1 mL of 0.5% agar was pipetted into one well of a 6-well plate and cooled at room temperature for 20-30 min, resulting in a 0.5% soft agar culture medium.\nIn the super clean bench, D-Hanks was gently added to the surface of the soft agar culture medium, and the D-Hanks was discarded after being gently shaken 2 to 3 times. Cleaning was repeated once. The mouse teratoma cells P19 were gently inoculated on the surface of the soft agar culture medium at a cell density of 4×10^5 cells/well. After the cell inoculation, ethyl p-methoxycinnamate was added to 1 mL of DMEM culture medium containing 10% fetal calf serum, mixed well, and then gently added to the experimental group. A final concentration of ethyl p-methoxycinnamate was 5 μg/mL. The control group was treated with DMSO. […]"}, "Oct4 promoter": {"system": "Oct4 promoter", "test": "Oct4 promoter luciferase reporter assay (pGL3-Oct4P-Basic) in P19 cells", "assay_type": "cell-based, mouse", "settings": "5 μg/mL, 12-24 h, DMSO control, FIG. 1", "excerpt": "According to a method described in literature (Yang H M, Do H J, Oh J H, et al. Characterization of putative cis-regulatory elements that control the transcriptional activity of the human Oct4 promoter[J]. Journal of cellular biochemistry, 2005, 96(4):821-830), the promoter of Oct4 gene was picked and cloned into pGL3-Basic, so as to construct pGL3-Oct4P-Basic reporter plasmid. One day before transfection, mouse teratoma cells P19 were inoculated into a 6-well cell culture plate at a density of 2×10^5 cells/well to make the cells grown to about 80% before transfection. […]\nLuciferase Reporter Assay System and FluoStar Optima were used to assay the luciferase activity of the transfected cell lysis solution. To 45 μL of the cell lysis solution was added 5 μL of Assay Cocktail reagent, after they were mixed well, 100 μL of Luciferin reaction solution was added, and fluorescence counting in 2 s was measured using FluoStar Optima instrument, which reflected the activity level of the studied plasmid reporter genes expressing firefly luciferase. […] An absorption value at 450 nm was assayed using a microplate reader, which reflected the activity level of internal reference plasmid pCMV-β-gal expressing β-galactosidase. […] The relative luciferase activity of different samples was calculated through the following equation: […]"}},
  "data": [
    {"smiles": "CCOC(=O)C=Cc1ccc(OC)cc1", "note": "[ethyl p-methoxycinnamate]", "values": [
      {"measurement": "formation of microspheres of suspendedly cultured stem cells", "setting": "mouse teratoma cells P19", "value": "the P19 cells can form a higher amount of larger and more typical microspheres"},
      {"measurement": "effect on the activity of Oct4 promoter (relative luciferase activity)", "setting": "Oct4 promoter", "value": "reached a statistically significant difference (*p<0.05)"}
    ]}
  ]
}
